The test system of assay [1] is anti-P30 monoclonal antibody 1E1E7. Kind of assay: Spotscan overlapping pentadecapeptides on cellulose membrane, immunoreactivity with 1E1E7. The conditions noted are these: 1E1E7 60 nM. The assay is classed as binding, mouse. The procedure: According to the “Spotscan” technique, the synthesis of the peptides is carried out on cellulose membranes (Cambridge Research Biochemicals). The principle of the method is the same as that for Pepscan. The esterified amino acids are solubilized in N-methylpyrrolidone (NMP) at the concentration of […] and 0.9 μl are deposited at the level of spots for the deposition of bromophenol blue. After a 15 minute incubation, another deposition of amino acids is carried out followed by another 15 minute incubation. If the coupling between the two amino acids is carried out correctly, a change in color is observed (passage from blue to yellowish green). After three washes in DMF, an acetylation step is carried out with acetic anhydride. Then the terminal amino groups of the peptides being synthesized are deprotected with 20% piperidine in DMF. The deposition spots are restained with a 1% bromophenol blue solution in DMF, washed three times with methanol and dried. These operations as a whole constitute a cycle for addition of an amino acid and this cycle is repeated up to the end of the synthesis. When all the amino acids have been added, the NH2-terminal group of the last amino acid is deprotected with 20% piperidine in DMF and is acetylated with acetic anhydride. The side chain protecting groups are removed by a dichloromethane:trifluoroacetic acid:triisobutylsilane mixture (5 ml:5 ml:250 μl). The immunoreactivity of the peptides thus synthesized can then be tested by ELISA.
In order to reproduce the entire pentadecapeptide included in the phage clone isolated and to determine the possible role of the contiguous amino acids belonging to the sequence of the PIII protein of the phage (see Example 1), the chemical synthesis of overlapping pentadecapeptides, which cover the sequence […](SEQ ID No.59), was carried out on an activated cellulose membrane (“Spotscan”).
After synthesis of the various pentadecapeptides, the membrane is rinsed with methanol, washed in TBS (0.1M Tris, pH 7.2) and then incubated overnight at room temperature in saturation buffer (marketed by Cambridge Research Biochemicals). After several washes with TBS-T (0.1M Tris, pH 7.2-0.05% Tween 20), the membrane is brought into contact with a solution of anti-P30 monoclonal antibody 1E1E7 (60 nM) and incubated for 4 hours at room temperature. After three washes with TBS-T, the anti-mouse immunoglobulin conjugate labeled with galactosidase (marketed by Cambridge Research Biochemicals) is added at a 1/200 dilution and the whole is incubated for two hours at room temperature. After several washes of the membrane with PBS-Tween 0.05% and PBS, the immunoreactivity at the level of the various spots is visualized by adding a solution of substrate (5-bromo-4-chloro-3-indoyl-D-galactopyranoside in PBS containing magnesium chloride and potassium ferricyanide) and incubating for 10 to 40 minutes. The color of the spots is assessed qualitatively.

For assay [2], the target named is T1, phage clone identified (SEQ ID No.48) (Enterobacteria phage fd, UniProt P03661).
T1 construct: made in house; host or cells: E. coli (K19Kan), phage amplification
Kind of assay: ELISA: inhibition by human serum of the attachment of monoclonal antibody 1E1E7 to the phage clone. The assay is classed as binding. The conditions noted are these: phages containing the sequence. The procedure: The ELISA test was carried out as described in Example 2 with the following modifications: 100 μl of various dilutions of human serum of a patient infected with Toxoplasma gondii (positive serum—reference G8) are brought into contact with the. phage clone identified, immobilized as described in Example 2, for 30 minutes at 37° C. After two washes with TBS/Tween 0.05%, 100 μl of monoclonal antibody 1E1E7 at the concentration of 6 nM are added and incubated overnight at 4° C. After four washes with TBS/Tween, 100 μl of anti-mouse conjugate labeled with peroxidase are added and then incubated for one hour at 37° C. The enzymatic reaction for visualization was carried out by adding 100 μl of an H2O2/orthophenylenediamine (OPD) solution and incubating the sample for 30 minutes at room temperature. The staining reaction is stopped by adding 50 μl of 1.8N sulfuric acid. The optical density is measured on a BioMé rieux plate reader at 492 nm. Moreover, a control was produced, under the same reaction conditions but with a human serum not infected with Toxoplasma gondii (negative serum), in order to ensure that the phage clone identified reacts specifically with the human serum of a patient infected with Toxoplasma gondii.
A general note: ELISA stands for enzyme-linked immunosorbent assay.

In assay [3] the target is phage clone displaying the pentadecapeptide Trp-His-Trp-Arg-His-Arg-Ile-Pro-Leu-Gln-Leu-Ala-Ala-Gly-Arg (SEQ ID No.48) fused in the PIII protein (filamentous phage). The assay is described as follows: phage ELISA, phages captured by anti-M13 antibodies, 1E1E7 at 3 nM.
For assay [4], the system named is anti-P30 monoclonal antibody 1E1E7. Kind of assay: Competition ELISA: inhibition by native P30 protein of the ELISA response of the phage clone. The assay is classed as binding, mouse. The settings on record: phage clone SEQ ID No.48. The procedure: A competition ELISA test was carried out in order to determine if the response obtained with the phage clone identified is inhibited by pre-incubation of the anti-P30 monoclonal antibody 1E1E7 with the P30 protein.
The ELISA test is carried out as described in Example 2 with the following modifications: the monoclonal antibody 1E1E7 (at the concentration of 6 nM) is preincubated with various concentrations of P30 protein for 20 minutes at 37° C. and then the mixture is added to the wells of the ELISA plate in which the phages corresponding to the pentadecapeptide Trp-His-Trp-Arg-His-Arg-Ile-Pro-Leu-Gln-Leu-Ala-Ala-Gly-Arg (SEQ ID No.48) are attached.

Ends that are not written are not given here.

Regarding RIPLQLAAGRGAAGA [SEQ ID No.32], the “Color of the spots (immunoreactivity), assessed qualitatively” value (“Color of the spots (immunoreactivity)” below) in assay [1] is reported as “maximum”.

For WHWRHRIPLQLAAGR [SEQ ID No.48], in assay [2], the “Recognition by the antibodies present in the sera of patients infected with Toxoplasma gondii” value is recorded as “indeed recognized”. As to HRIPLQLAAGRGAAG [SEQ ID No.9], the “Color of the spots (immunoreactivity)” value in assay [1] was “maximum”. As to PLQLAAGRGAAGAET [SEQ ID No.34], the “Color of the spots (immunoreactivity)” value in assay [1] was “disappears completely”. In assay [3], “anti-P30 monoclonal antibody 1E1E7 (BioMerieux)” returned an OD (492 nm) of 0.269 to 0.274 OD 492 nm.

On to IPLQLAAGRGAAGAE [SEQ ID No.33], for which, in assay [1], the “Color of the spots (immunoreactivity)” value is “very slight color”. In the case of SADGAWHWRHRIPLQ [SEQ ID No.231], the “Color of the spots (immunoreactivity)” value in assay [1] was “a first color”.

B1: P30 protein: the Toxoplasma gondii major antigen, peptide sequence identified by SEQ ID No.1 (protein)
chain: MSVSLHHFIISSGFLTSMFPKAVRRAVTAGVFAAPTLMSFLRCGVMASDPPLVANQVVTCPDKKSTAAVILTPTENHFTLKCPKTALTEPPTLAYSPNRQICPAGTTSSCTSKAVTLSSLIPEAEDSWWTGDSASLDTAGIKLTVPIEKFPVTTQTFVVGCIKGDDAQSCMVTVTVQARASSVVNNVARCSYGADSTLGPVKLSAEGPTTMTLVCGKDGVKVPQDNNQYCSGTTLTGCNEKSFKDILPKLTENPWQGNASSDKGATLTINKEAFPAESKSVIIGCTGGSPEKHHCTVKLEFAGAAGSAKSSAGTASHVSIFAMVTGLIGSIAACVA
B1: the figures for the “Inhibition of the ELISA response” value in assay [4] (P30 protein 35 ng/ml preincubated with 6 nM 1E1E7) and in assay [4] (P30 protein 3.5 μg/ml preincubated with 6 nM 1E1E7) were 45% and 80%, respectively.

The record behind these values is patent publication US6372897B1, “Mimotopic polypeptides of toxoplasma gondii and applications” (priority 1995, dated 2002).
